Assay results published in PMC6017090, “Design, Synthesis and Biological Evaluation of Novel N-Pyridyl-Hydrazone Derivatives as Potential Monoamine Oxidase (MAO) Inhibitors” (Molecules : A Journal of Synthetic Chemistry and Natural …, 2018).

Columns and labels:
MAO-A enzyme [1] = biological target: T1, MAO-A enzyme (Homo sapiens, UniProt P21397); experiment: MAO activity assay (fluorometric, kynuramine substrate), MAO-A; format: biochemical; details: for inhibition at 1000 µM: 10^−3 M; for inhibition at 1000 µM / inhibition at 100 µM: ± S.D.; for inhibition at 100 µM: 10^−4 M; for inhibition at 10 µM: 10^−5 M; for inhibition at 1 µM: 10^−6 M; for inhibition at 0.1 µM: 10^−7 M; for inhibition at 0.01 µM: 10^−8 M; for inhibition at 0.001 µM: 10^−9 M
T1 construct: purchased Sigma-Aldrich
T1 sequence (P21397 1-527): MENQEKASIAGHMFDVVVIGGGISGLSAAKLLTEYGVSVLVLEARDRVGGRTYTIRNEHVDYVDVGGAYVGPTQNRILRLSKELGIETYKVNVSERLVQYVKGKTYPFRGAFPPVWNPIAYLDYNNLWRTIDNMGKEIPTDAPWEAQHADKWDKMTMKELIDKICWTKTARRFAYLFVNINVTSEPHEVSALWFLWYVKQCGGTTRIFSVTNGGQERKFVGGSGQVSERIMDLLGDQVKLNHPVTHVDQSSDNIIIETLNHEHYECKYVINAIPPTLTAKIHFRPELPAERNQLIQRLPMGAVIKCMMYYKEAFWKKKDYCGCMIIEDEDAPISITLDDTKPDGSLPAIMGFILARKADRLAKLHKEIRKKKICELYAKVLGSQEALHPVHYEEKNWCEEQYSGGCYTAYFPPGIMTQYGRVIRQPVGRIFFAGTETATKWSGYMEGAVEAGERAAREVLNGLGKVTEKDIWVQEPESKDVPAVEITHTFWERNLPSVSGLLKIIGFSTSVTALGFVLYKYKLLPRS
Experimental: The enzyme activity assay was performed in accordance with the procedure reported by Matsumoto et al. with slight modifications. All materials used in the enzymatic assays were purchased from Sigma-Aldrich Chemicals. All pipetting protocols in the assay were performed by the Biotek Precision robotic system (BioTek Instruments, Inc., Winooski, VT, USA). To prevent the effect of light MAO enzymes, the assay was performed in 96-well black plates. […] The enzyme stock solutions were further diluted with an assay buffer to obtain final concentrations of 0.006 mg/mL MAO-A and 0.015 mg/mL MAO-B. Kynuramine was dissolved in sterilized distilled water to obtain a 25 mM stock solution and then diluted with the assay buffer to obtain final concentrations of 40 μM for the MAO-A enzyme and 20 μM for the MAO-B enzyme. […] The addition of the diluted compounds was followed by the addition of either the MAO-A or MAO-B enzymes (50 μL/well). […] Fluorescence was read from top by using BioTek-Synergy H1 multimode microplate reader at the excitation/emission wavelengths of 310 and 380 nm.
(§1) The IC50 values (Table 2) were calculated from the plots of enzyme activity against concentrations, and the regression analyses were computed in GraphPad Prism Version 6 (GraphPad Software, Inc., La Jolla, CA, USA).

human recombinant MAO-B = biological target: T2, human recombinant MAO-B (Homo sapiens, UniProt P27338); experiment: MAO activity assay (fluorometric, kynuramine substrate), MAO-B; format: biochemical; details: for inhibition at 1000 µM: 10^−3 M; for inhibition at 1000 µM / inhibition at 100 µM: ± S.D.; for inhibition at 100 µM: 10^−4 M
T2 construct: purchased Sigma-Aldrich
T2 sequence (P27338 1-520): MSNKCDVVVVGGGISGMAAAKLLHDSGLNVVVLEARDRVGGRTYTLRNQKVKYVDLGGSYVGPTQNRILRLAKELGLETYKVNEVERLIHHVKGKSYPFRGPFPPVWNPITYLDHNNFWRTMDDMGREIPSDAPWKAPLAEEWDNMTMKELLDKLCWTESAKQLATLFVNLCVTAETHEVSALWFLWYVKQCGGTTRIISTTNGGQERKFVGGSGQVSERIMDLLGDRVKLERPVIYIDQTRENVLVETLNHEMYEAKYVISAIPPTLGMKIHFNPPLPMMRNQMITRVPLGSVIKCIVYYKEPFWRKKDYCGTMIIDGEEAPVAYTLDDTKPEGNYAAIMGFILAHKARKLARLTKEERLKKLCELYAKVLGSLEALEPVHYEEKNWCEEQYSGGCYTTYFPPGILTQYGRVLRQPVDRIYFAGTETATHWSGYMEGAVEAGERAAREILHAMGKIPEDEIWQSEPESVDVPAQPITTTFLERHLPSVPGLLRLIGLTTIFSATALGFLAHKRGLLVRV
Experimental: The enzyme activity assay was performed in accordance with the procedure reported by Matsumoto et al. with slight modifications. All materials used in the enzymatic assays were purchased from Sigma-Aldrich Chemicals. All pipetting protocols in the assay were performed by the Biotek Precision robotic system (BioTek Instruments, Inc., Winooski, VT, USA). To prevent the effect of light MAO enzymes, the assay was performed in 96-well black plates. Phosphate buffer (0.1 M, pH = 7.4) was used for the preparation of 5 mg/mL stock solutions of the human recombinant MAO-A and MAO-B enzymes. The enzyme stock solutions were further diluted with an assay buffer to obtain final concentrations of 0.006 mg/mL MAO-A and 0.015 mg/mL MAO-B. Kynuramine was dissolved in sterilized distilled water to obtain a 25 mM stock solution and then diluted with the assay buffer to obtain final concentrations of 40 μM for the MAO-A enzyme and 20 μM for the MAO-B enzyme. […] The addition of the diluted compounds was followed by the addition of either the MAO-A or MAO-B enzymes (50 μL/well). […] Fluorescence was read from top by using BioTek-Synergy H1 multimode microplate reader at the excitation/emission wavelengths of 310 and 380 nm.
as §1

[2] = Cytotoxicity test (MTT assay); details: mouse, NIH/3T3 mouse embryonic fibroblast cells (ATCC CRL-1658)
Experimental: The MTT assay was performed as previously described [21, 22, 23, 24, 25, 26].

MAO-A enzyme [3] = biological target: T1, MAO-A enzyme; experiment: Enzyme kinetic studies (Lineweaver-Burk plots) on MAO-A; format: biochemical
Experimental: The same materials were used for the MAO-inhibition assay. Compound 2j was prepared at the IC50 concentration calculated in the enzyme assay and then added to the wells (100 μL/well). The stock solution (25 mM) of kynuramine in 0.1 M phosphate buffer was diluted to final concentrations of 40, 20, 10, 5, 2.5 and 1.25 μM and then added to the wells (50 μL/well) that contained the test compound. The MAO-A enzyme was added to the plate (50 μL/well), incubated for 20 min at 37 °C, and the plate was read at excitation/emission wavelengths of 310 and 340 nm. The control measurement without the inhibitor was determined simultaneously. The results were analyzed by using Lineweaver-Burk plots in Microsoft Office Excel 2013 (Microsoft Inc., Redmond, WA, USA).
1/V: 1/rate of reaction [1/(nmoles/min/mg protein)], 1/S: 1/substrate concentration (1/µM).

Compound | IC50 (MAO-A enzyme [1]) [µM] | inhibition at 1000 µM (MAO-A enzyme [1]) [%] | inhibition at 100 µM (MAO-A enzyme [1]) [%] | inhibition at 10 µM (MAO-A enzyme [1]) [%] | inhibition at 1 µM (MAO-A enzyme [1]) [%] | inhibition at 0.1 µM (MAO-A enzyme [1]) [%] | inhibition at 0.01 µM (MAO-A enzyme [1]) [%] | inhibition at 0.001 µM (MAO-A enzyme [1]) [%] | inhibition at 1000 µM (human recombinant MAO-B) [%] | inhibition at 100 µM (human recombinant MAO-B) [%] | melting point [°C] | IC50 [2] [µM] | IC50 (human recombinant MAO-B) [µM] | inhibition at 10 µM (human recombinant MAO-B; 10^−5 M) [%] | inhibition at 1 µM (human recombinant MAO-B; 10^−6 M) [%] | inhibition at 0.1 µM (human recombinant MAO-B; 10^−7 M) [%] | inhibition at 0.01 µM (human recombinant MAO-B; 10^−8 M) [%] | inhibition at 0.001 µM (human recombinant MAO-B; 10^−9 M) [%] | Vmax (MAO-A enzyme [3]; MAO-A, kynuramine substrate, nonlinear regression) [nmol/min/mg protein] | Nature of MAO-A inhibition (Lineweaver–Burk plots) (MAO-A enzyme [3]; compound at IC50 concentration, kynuramine 40-1.25 μM)
CCOc1ccc([N+](=O)[O-])c(NN=Cc2cccn2C)n1 [Compound 2k, 6-Ethoxy-2-[2-((1-methyl-1H-pyrrol-2-yl)methylene)hydrazinyl]-3-nitropyridine] | 6.12 | 76.6 ± 1.38 | 66.1 ± 1.47 | 54.7 ± 1.2 | 36.6 ± 1.08 | 33.2 ± 0.92 | 25.2 ± 0.88 | 23 ± 0.89 | 40.9 ± 1.02 | 39.7 ± 1.15 | 163 | > 1000 | – | – | – | – | – | – | – | –
CCOc1ccc([N+](=O)[O-])c(NN=Cc2ccc(C#N)cc2)n1 [Compound 2g, 6-Ethoxy-2-[2-(4-cyanobenzylidene)hydrazinyl]-3-nitropyridine] | – | 25.9 ± 0.87 | 14.4 ± 0.54 | – | – | – | – | – | 0.67 ± 0.03 | 0.27 ± 0.01 | 267 | – | – | – | – | – | – | – | – | –
CCOc1ccc([N+](=O)[O-])c(NN=Cc2ccc(C)cc2)n1 [Compound 2d, 6-Ethoxy-2-[2-(4-methylbenzylidene)hydrazinyl]-3-nitropyridine] | – | 20.1 ± 0.41 | 11.4 ± 0.28 | – | – | – | – | – | 0.52 ± 0.02 | 0.18 ± 0.006 | 171 | – | – | – | – | – | – | – | – | –
CCOc1ccc([N+](=O)[O-])c(NN=Cc2ccc([N+](=O)[O-])cc2)n1 [Compound 2f, 6-Ethoxy-3-nitro-2-[2-(4-nitrobenzylidene)hydrazinyl]pyridine] | – | 65 ± 1.23 | 16 ± 0.56 | – | – | – | – | – | 7.39 ± 0.31 | 0.55 ± 0.02 | 281 | – | – | – | – | – | – | – | – | –
CCOc1ccc([N+](=O)[O-])c(NN=Cc2ccco2)n1 [Compound 2l, 6-Ethoxy-2-[2-((furan-2-yl)methylene)hydrazinyl]-3-nitropyridine] | 10.6 | 67.8 ± 1.44 | 64.4 ± 1.3 | 43 ± 1.02 | 31 ± 0.98 | 27.2 ± 0.89 | 19.8 ± 0.41 | 17.88 ± 0.17 | 51 ± 1.08 | 43 ± 1.06 | 155 | > 1000 | – | – | – | – | – | – | – | –
CCOc1ccc([N+](=O)[O-])c(NN=Cc2ccc(OC)cc2)n1 [Compound 2e, 6-Ethoxy-2-[2-(4-methoxybenzylidene)hydrazinyl]-3-nitropyridine] | – | 55.6 ± 1.05 | 14 ± 0.41 | – | – | – | – | – | 33.1 ± 1.14 | 0.22 ± 0.008 | 175 | – | – | – | – | – | – | – | – | –
CCOc1ccc([N+](=O)[O-])c(NN=Cc2ccc(F)cc2)n1 [Compound 2c, 6-Ethoxy-2-[2(4-fluorobenzylidene)hydrazinyl]-3-nitropyridine] | – | 52 ± 1.02 | 7.09 ± 0.18 | – | – | – | – | – | 60.2 ± 1.18 | 0.69 ± 0.03 | 191 | – | – | – | – | – | – | – | – | –
CCOc1ccc([N+](=O)[O-])c(NN=Cc2cccs2)n1 [Compound 2m, 6-Ethoxy-3-nitro-2-[2-((thiophen-2-yl)methylene)hydrazinyl]pyridine] | – | 41.4 ± 1.13 | 36 ± 1.15 | – | – | – | – | – | 34.4 ± 0.88 | 21.2 ± 0.8 | 152 | – | – | – | – | – | – | – | – | –
CCOc1ccc([N+](=O)[O-])c(NN=Cc2ccc(N(C)C)cc2)n1 [Compound 2h, 6-Ethoxy-2-[2-(4-dimethylaminobenzylidene)hydrazinyl]-3-nitropyridine] | – | 80.8 ± 1.31 | 16.9 ± 0.49 | – | – | – | – | – | 86.3 ± 1.25 | 3.52 ± 0.15 | 192 | – | – | – | – | – | – | – | – | –
O=C(NCCN1CCOCC1)c1ccc(Cl)cc1 [Moclobemide, moclobemide, reference compound] | – | – | – | 60.5 ± 2.55 | 36.1 ± 1.98 | 22.1 ± 1.33 | 18.2 ± 0.81 | 14.1 ± 0.72 | – | – | – | – | – | – | – | – | – | – | – | –
CCOc1ccc([N+](=O)[O-])c(NN=Cc2ccc(Cl)cc2)n1 [Compound 2b, 2-[2-(4-Chlorobenzylidene)hydrazinyl]-6-ethoxy-3-nitropyridine] | – | 49 ± 1.22 | 0.46 ± 0.01 | – | – | – | – | – | 0.43 ± 0.02 | 0.11 ± 0.004 | 211 | – | – | – | – | – | – | – | – | –
CCOc1ccc([N+](=O)[O-])c(NN=Cc2ccccc2)n1 [Compound 2a, 2-(2-Benzylidenehydrazinyl)-6-ethoxy-3-nitropyridine] | – | 25.6 ± 0.88 | 17.9 ± 0.68 | – | – | – | – | – | 0.76 ± 0.03 | 0.58 ± 0.01 | 168 | – | – | – | – | – | – | – | – | –
CCOc1ccc([N+](=O)[O-])c(NN=Cc2ccc(C(F)(F)F)cc2)n1 [Compound 2i, 6-Ethoxy-2-[2-(4-trifluoromethylbenzylidene)hydrazinyl]-3-nitropyridine] | 13.1 | 55.7 ± 1.26 | 51.7 ± 1.18 | 31.2 ± 1.2 | 21.1 ± 0.84 | 15.4 ± 0.62 | 12.7 ± 0.43 | 11.6 ± 0.38 | 38.3 ± 1.19 | 29.1 ± 0.99 | 165 | > 1000 | – | – | – | – | – | – | – | –
CCOc1ccc([N+](=O)[O-])c(NN=Cc2ccc(O)cc2)n1 [Compound 2j, 4-[(2-(6-Ethoxy-3-nitropyridin-2-yl)hydrazono)methyl]phenol] | 6.25 | 75.7 ± 1.85 | 69.8 ± 1.43 | 56.1 ± 1.27 | 43.2 ± 1.06 | 38.8 ± 1.07 | 32.7 ± 0.82 | 26.7 ± 0.96 | 63.8 ± 1.28 | 52.7 ± 1.29 | 158 | > 1000 | 9.3 | 40.2 ± 1.12 | 31.6 ± 1.08 | 25 ± 0.95 | 21.9 ± 0.82 | 12.5 ± 0.51 | 1.903 | mixed type inhibitor
